Assay results taken from ChEMBL document CHEMBL1201862, “PubChem BioAssay data set” (2004).
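48-hour exposure; five concentrations; linearly interpolated endpoints. Here, GI50 denotes the concentration required for 50% inhibition of growth.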 Activity calls are given as the source filed them. Rule as the data show it: active = GI50 up to about 1.1 µM and inactive = higher.

How the values were obtained:
Experiment in all cases: NCI tumour cell line growth inhibition, 48 h
[1] = test system: A498
[2] = test system: SR
[3] = test system: HL-60
[4] = test system: SK-MEL-2
[5] = test system: LOX IMVI
[6] = test system: SF-539
[7] = test system: HCC 2998
[8] = test system: DMS-273
[9] = test system: SW-620
[10] = test system: KM-20L2
[11] = test system: OVCAR-5
[12] = test system: U-251
[13] = test system: K562
[14] = test system: 786-0
[15] = test system: CAKI-1
[16] = test system: KM12

| Compound | GI50 [1] | GI50 [2] | GI50 [3] | GI50 [4] | GI50 [5] | GI50 [6] | GI50 [7] | GI50 [8] | GI50 [9] | GI50 [10] | GI50 [11] | GI50 [12] | GI50 [13] | GI50 [14] | GI50 [15] | GI50 [16] |
| --- | --- | --- | --- | --- | --- | --- | --- | --- | --- | --- | --- | --- | --- | --- | --- | --- |
| O=C1OC(c2ccccc2)=N/C1=C/NC(CS)C(=O)O (centres undefined) | > 100 µM (inactive) | > 100 µM (inactive) | > 100 µM (inactive) | > 100 µM (inactive) | > 100 µM (inactive) | > 100 µM (inactive) | > 100 µM (inactive) | > 100 µM (inactive) | > 100 µM (inactive) | > 100 µM (inactive) | > 100 µM (inactive) | > 100 µM (inactive) | > 100 µM (inactive) | > 100 µM (inactive) | – | – |
| CC(C)(C)c1cc(C2c3cc4c(cc3OC(O)(CO)C2C(=O)O)OCO4)cc(C(C)(C)C)c1O.CC(C)(C)c1cc(C2c3cc4c(cc3OC3(O)COC(=O)C23)OCO4)cc(C(C)(C)C)c1O (centres undefined) | – | – | 7.73 µM (inactive) | – | 12.2 µM (inactive) | 12.5 µM (inactive) | – | 14 µM (inactive) | 14.4 µM (inactive) | 17 µM (inactive) | – | 14.5 µM (inactive) | 7.67 µM (inactive) | 16.6 µM (inactive) | 18.4 µM (inactive) | – |
| C/C(=N\NC(N)=S)c1cc(C)c(C)cc1C | 81.7 µM (inactive) | 37 µM (inactive) | 21.7 µM (inactive) | 34.6 µM (inactive) | 70.8 µM (inactive) | 35.5 µM (inactive) | 52.5 µM (inactive) | 19.3 µM (inactive) | 44 µM (inactive) | 35.6 µM (inactive) | 20.1 µM (inactive) | 48.6 µM (inactive) | 40.3 µM (inactive) | 93.8 µM (inactive) | > 100 µM (inactive) | 25.5 µM (inactive) |
| O=C(NC1C(=O)NNC1c1ccccc1Cl)c1ccccc1 (centres undefined) | > 100 µM (inactive) | 42.2 µM (inactive) | > 100 µM (inactive) | > 100 µM (inactive) | > 100 µM (inactive) | > 100 µM (inactive) | > 100 µM (inactive) | > 100 µM (inactive) | > 100 µM (inactive) | > 100 µM (inactive) | > 100 µM (inactive) | > 100 µM (inactive) | 39.4 µM (inactive) | > 100 µM (inactive) | > 100 µM (inactive) | > 100 µM (inactive) |
| OC(CC1SCCCS1)c1ccccc1 (centres undefined) | > 100 µM (inactive) | – | > 100 µM (inactive) | > 100 µM (inactive) | – | > 100 µM (inactive) | > 100 µM (inactive) | > 100 µM (inactive) | > 100 µM (inactive) | > 100 µM (inactive) | > 100 µM (inactive) | > 100 µM (inactive) | > 100 µM (inactive) | > 100 µM (inactive) | > 100 µM (inactive) | > 100 µM (inactive) |
| Cc1ccccc1NC(=O)c1ccc([N+](=O)[O-])cc1 | > 100 µM (inactive) | – | 46.8 µM (inactive) | – | > 100 µM (inactive) | > 100 µM (inactive) | > 100 µM (inactive) | 80.5 µM (inactive) | > 100 µM (inactive) | > 100 µM (inactive) | > 100 µM (inactive) | > 100 µM (inactive) | 93.5 µM (inactive) | > 100 µM (inactive) | > 100 µM (inactive) | 67.5 µM (inactive) |
| O=[PH](O)c1cc2ccccc2c2ccccc12 | – | – | > 100 µM (inactive) | – | > 100 µM (inactive) | > 100 µM (inactive) | > 100 µM (inactive) | > 100 µM (inactive) | > 100 µM (inactive) | > 100 µM (inactive) | – | > 100 µM (inactive) | > 100 µM (inactive) | > 100 µM (inactive) | – | > 100 µM (inactive) |
| O=C1C(c2ccccc2)=C(O)c2cccc3cccc1c23 | > 100 µM (inactive) | > 100 µM (inactive) | > 100 µM (inactive) | > 100 µM (inactive) | > 100 µM (inactive) | > 100 µM (inactive) | > 100 µM (inactive) | > 100 µM (inactive) | > 100 µM (inactive) | > 100 µM (inactive) | > 100 µM (inactive) | > 100 µM (inactive) | > 100 µM (inactive) | > 100 µM (inactive) | > 100 µM (inactive) | > 100 µM (inactive) |
| COC(=O)c1c(C)cc2c(c1O)C1(O)C(=O)c3cc4c(c(O)c3C(=O)C1(OC)C(O)C2)C(=O)C=C(NC1OC(C)C(OC)C(O)C1OC)C4=O (centres undefined) | 0.259 µM (active) | 0.0405 µM (active) | 0.0194 µM (active) | 0.0284 µM (active) | 0.0342 µM (active) | 0.0605 µM (active) | 0.138 µM (active) | 0.103 µM (active) | 0.0416 µM (active) | 0.104 µM (active) | 0.205 µM (active) | 0.207 µM (active) | 0.0204 µM (active) | 0.0753 µM (active) | 0.225 µM (active) | 0.129 µM (active) |
| C=C1C2CC(OC(C)=O)C3(C)C(c4ccoc4)OC(=O)[C@@H](O)[C@]13OC1C[C@H](OC(C)=O)C(C)(C)[C@H](CC(=O)OC)[C@]12C (some centres undefined) | > 100 µM (inactive) | – | 50.6 µM (inactive) | > 100 µM (inactive) | > 100 µM (inactive) | > 100 µM (inactive) | > 100 µM (inactive) | > 100 µM (inactive) | > 100 µM (inactive) | > 100 µM (inactive) | – | > 100 µM (inactive) | > 100 µM (inactive) | > 100 µM (inactive) | – | > 100 µM (inactive) |
| COc1ccc(/C=C/C(=O)c2cc(C(=O)O)c(OC)cc2OC)cc1OC | > 100 µM (inactive) | > 100 µM (inactive) | > 100 µM (inactive) | – | > 100 µM (inactive) | > 100 µM (inactive) | – | > 100 µM (inactive) | > 100 µM (inactive) | > 100 µM (inactive) | > 100 µM (inactive) | > 100 µM (inactive) | > 100 µM (inactive) | > 100 µM (inactive) | – | > 100 µM (inactive) |
| Cn1c2c(c3ccccc31)CCN(CCCN1CCN(c3ccccc3)CC1)C2=O | 18.5 µM (inactive) | – | 13.5 µM (inactive) | – | 22.9 µM (inactive) | 17.6 µM (inactive) | – | 21.5 µM (inactive) | 22.1 µM (inactive) | 12.8 µM (inactive) | – | 16.6 µM (inactive) | 17.3 µM (inactive) | 19.5 µM (inactive) | 16.7 µM (inactive) | – |
| CCCCCNC(=O)CCCCCCCCCCCNC(=O)CCCCCCCCCCN1C=CC(=CC=C2C=CC(=O)C=C2)C=C1 | > 100 µM (inactive) | 6.64 µM (inactive) | 2.51 µM (inactive) | – | 34.8 µM (inactive) | 30.3 µM (inactive) | 32.7 µM (inactive) | 23.8 µM (inactive) | 54.1 µM (inactive) | > 100 µM (inactive) | > 100 µM (inactive) | 32.1 µM (inactive) | 21.2 µM (inactive) | > 100 µM (inactive) | > 100 µM (inactive) | 37.4 µM (inactive) |
| O=C(c1ccco1)N(C(=S)N1CCN(c2ccccc2)CC1)C1CCCCC1 | – | > 100 µM (inactive) | > 100 µM (inactive) | > 100 µM (inactive) | 57.3 µM (inactive) | > 100 µM (inactive) | – | 59.4 µM (inactive) | > 100 µM (inactive) | 90.4 µM (inactive) | > 100 µM (inactive) | > 100 µM (inactive) | > 100 µM (inactive) | > 100 µM (inactive) | > 100 µM (inactive) | > 100 µM (inactive) |
| COc1cc(CCc2ccc(N)cc2)cc(OC)c1OC | 56.1 µM (inactive) | – | > 48 µM (inactive) | 27.8 µM (inactive) | 61 µM (inactive) | 26.1 µM (inactive) | > 47.8 µM (inactive) | 37.9 µM (inactive) | 45.5 µM (inactive) | 44.2 µM (inactive) | > 100 µM (inactive) | > 53.2 µM (inactive) | 46.1 µM (inactive) | > 92.7 µM (inactive) | 67.8 µM (inactive) | 18.7 µM (inactive) |
| N#C/C(=C\c1ccc(O)c(O)c1)C(N)=O | > 100 µM (inactive) | – | 10.1 µM (inactive) | > 100 µM (inactive) | – | 30.5 µM (inactive) | 53.1 µM (inactive) | 57.7 µM (inactive) | 43.9 µM (inactive) | 50.4 µM (inactive) | > 100 µM (inactive) | 33.9 µM (inactive) | 34.6 µM (inactive) | 20.6 µM (inactive) | 95.9 µM (inactive) | 33.1 µM (inactive) |
| O=c1c2ccccc2c(=O)c2c1c1[nH]c3ccccc3c1c1c(=O)c3ccccc3c(=O)c21 | > 100 µM (inactive) | – | > 100 µM (inactive) | > 100 µM (inactive) | > 100 µM (inactive) | > 100 µM (inactive) | > 100 µM (inactive) | > 100 µM (inactive) | > 100 µM (inactive) | > 100 µM (inactive) | > 100 µM (inactive) | > 100 µM (inactive) | > 100 µM (inactive) | > 100 µM (inactive) | > 100 µM (inactive) | > 100 µM (inactive) |
| CCN(CC)CC1CCCCN1CC(=O)N1CC(C)C(=O)Nc2ccccc21 (centres undefined) | > 100 µM (inactive) | > 100 µM (inactive) | > 100 µM (inactive) | – | > 100 µM (inactive) | – | > 100 µM (inactive) | > 100 µM (inactive) | > 100 µM (inactive) | > 100 µM (inactive) | > 100 µM (inactive) | > 100 µM (inactive) | > 100 µM (inactive) | > 100 µM (inactive) | > 100 µM (inactive) | – |
| O=C(Nc1ccc([N+](=O)[O-])cc1C(=O)O)c1ccc([N+](=O)[O-])cc1 | 71.9 µM (inactive) | – | 17.1 µM (inactive) | 19.2 µM (inactive) | 24.2 µM (inactive) | 9.95 µM (inactive) | 16 µM (inactive) | 31.2 µM (inactive) | 46.3 µM (inactive) | 18.4 µM (inactive) | 45.8 µM (inactive) | 37.4 µM (inactive) | 15.1 µM (inactive) | 31.6 µM (inactive) | – | 24.8 µM (inactive) |
